As usually defined, the Km is the substrate concentration at which the rate is half of its maximum.

For one compound, Km and Vmax results are on record in patent US20250129344A1, “MODIFIED GLUTAMATE DEHYDROGENASE AND APPLICATION THEREOF” (Hunan Lier Biotech Co., Ltd., priority 2021, published 2025).

Common to all, as to test: Dynamic properties (Michaelis-Menten) of LsGluDH mutant, PPO reductive amination
Holding throughout (format): biochemical
Common to all, as to conditions: PPO 5-100 mM, NADPH 0.15 mM, NH4Cl 50 mM, PBS pH 7.5, 30° C., diluted crude enzyme, 340 nm

The target of test [1] is T1, Lysinibacillus sphaericus glutamate dehydrogenase (LsGluDH, SEQ ID NO: 2) variant A175G-V173S, SEQ ID NO: 34 (Lysinibacillus pinottii, UniProt A0ABT2DNY0, A175G/V173S).
T1 sequence (A0ABT2DNY0 1-457 V173S/A175G): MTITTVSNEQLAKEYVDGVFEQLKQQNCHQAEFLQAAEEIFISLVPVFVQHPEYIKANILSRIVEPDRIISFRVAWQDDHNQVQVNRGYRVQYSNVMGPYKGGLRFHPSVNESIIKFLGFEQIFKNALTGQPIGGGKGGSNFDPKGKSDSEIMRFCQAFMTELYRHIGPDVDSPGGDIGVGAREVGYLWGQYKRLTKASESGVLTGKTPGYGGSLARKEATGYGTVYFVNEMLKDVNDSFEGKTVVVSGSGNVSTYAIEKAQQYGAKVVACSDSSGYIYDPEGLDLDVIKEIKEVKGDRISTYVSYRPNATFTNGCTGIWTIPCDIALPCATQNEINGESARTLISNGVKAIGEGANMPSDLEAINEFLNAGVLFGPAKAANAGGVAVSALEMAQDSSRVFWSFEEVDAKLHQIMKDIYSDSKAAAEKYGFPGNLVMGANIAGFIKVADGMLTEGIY
The procedure:
(§1) A plurality of reaction systems (200 μL) comprising PBS of 100 mM pH 7.5 (pH was adjusted with aqueous ammonia solution), NADPH (reductive) of 0.15 mM, NH4Cl of 50 mM, diluted (500 folds) crude enzyme solution of 10% volume and the substrate PPO at various concentrations (5-100 mM) were formulated on a 96-well plate. The intensity of the UV absorption at 340 nm was detected at 30° C., and the rate of change in absorption over time (mA/min) was recorded. The obtained parameters were plugged into Michaelis-Menten equation, in which the reaction velocity was calculated with the rate of change in absorption.
(§2) The mutants were prepared with the coding nucleic acid of LsGluDH (SEQ ID NO: 2) as the template, and the enzyme activities and the dynamic parameters Vmax and Km were measured, according to the method of Example 1. The resulted mutants and the enzyme activities and the dynamic parameters thereof are shown in Table 2, and the relative enzyme activity means the percentage of the enzyme activity of the mutant to the enzyme activity of the mutant of SEQ ID NO: 31.

The target of test [2] is T2, Lysinibacillus sphaericus glutamate dehydrogenase (LsGluDH, SEQ ID NO: 2) variant A175G-V173G-A182R, SEQ ID NO: 37 (Lysinibacillus pinottii, UniProt A0ABT2DNY0, A175G/A182R/V173G).
T2 sequence (A0ABT2DNY0 1-457 V173G/A175G/A182R): T1 sequence (A0ABT2DNY0 1-457 V173S/A175G) with S173G, A182R
The procedure: as §1, §2

Test [3] concerns the target T3, Lysinibacillus sphaericus glutamate dehydrogenase (LsGluDH, SEQ ID NO: 2) variant A175G-P132L, SEQ ID NO: 32 (Lysinibacillus pinottii, UniProt A0ABT2DNY0, A175G/P132L).
T3 sequence (A0ABT2DNY0 1-457 P132L/A175G): T1 sequence (A0ABT2DNY0 1-457 V173S/A175G) with P132L, S173V
The procedure: as §1, §2

Test [4] concerns the target T4, Lysinibacillus sphaericus glutamate dehydrogenase (LsGluDH, SEQ ID NO: 2) variant A175G-V173G, SEQ ID NO: 35 (Lysinibacillus pinottii, UniProt A0ABT2DNY0, A175G/V173G).
T4 sequence (A0ABT2DNY0 1-457 V173G/A175G): T1 sequence (A0ABT2DNY0 1-457 V173S/A175G) with S173G
The procedure: as §1, §2

The structures appear in SMILES notation. Changes are numbered by the printed parent chain.

Take `CP(=O)(O)CCC(=O)C(=O)O` [PPO, 2-carbonyl-4-(hydroxymethylphosphono) butyric acid]: the Km in test [1] was 62 mM; in test [2], 31 mM; in test [3], 35 mM; in test [4], 49 mM. The Vmax in test [1] is recorded as 106 mA/min; in test [2], 58 mA/min; in test [3], 45 mA/min; in test [4], 64 mA/min.
